Test results as given in patent US20250152564A1, “PROPYLENE KETONE-CONTAINING BIOINHIBITOR, PREPARATION METHOD THEREFOR, AND USE THEREOF” (SHANGHAI HANSOH BIOMEDICAL CO., LTD., priority 2022, published 2025).

Assays:
[1] = biological target: FGFR2 (Homo sapiens (Human), UniProt P21802); assay: TR-FRET kinase inhibition assay, FGFR2; assay type: biochemical; conditions: ATP Km concentration (30 μM)
Method in brief: (§1)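 Kinase-domain fragments in 50 mM HEPES pH 7.5 with 10 mM MgCl2, ATP at Km plus peptide substrate; 60 min reaction at room temperature, then EDTA/Eu-anti-phosphotyrosine (PT66) detection for 60 min (30 min for V564F). 11-point 3-fold dilutions from 1000 nM; IC50 from four-parameter fit of 665/620 nm ratio inhibition.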

[2] = system: BaF3 FGFR2-BICC1 V564F cells; assay: CellTiter-Glo cell proliferation inhibition, BaF3 FGFR2-BICC1 V564F; assay type: cell-based; conditions: Mus musculus, 72 h, read-out: BaF3 FGFR2-BICC1 V564F inhibitory activity IC50
Method in brief: (§2)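 Cells plated, compound added next day as 9-point 3-fold series from 1000 nM to 0.15 nM, incubated 72 h. Viability by CellTiter-Glo luminescence; IC50 from four-parameter variable-slope fit of percent inhibition.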

[3] = system: NCI-H716 cells; assay: CellTiter-Glo cell proliferation inhibition, NCI-H716; assay type: cell-based; conditions: Homo sapiens, 72 h, read-out: NCI-H716 cell proliferation inhibition rate IC50
Method in brief: as §2

[4] = biological target: FGFR1 (Homo sapiens (Human), UniProt P11362); assay: TR-FRET kinase inhibition assay, FGFR1; assay type: biochemical; conditions: ATP Km concentration (30 μM)
FGFR1, sequence (P11362 478-767): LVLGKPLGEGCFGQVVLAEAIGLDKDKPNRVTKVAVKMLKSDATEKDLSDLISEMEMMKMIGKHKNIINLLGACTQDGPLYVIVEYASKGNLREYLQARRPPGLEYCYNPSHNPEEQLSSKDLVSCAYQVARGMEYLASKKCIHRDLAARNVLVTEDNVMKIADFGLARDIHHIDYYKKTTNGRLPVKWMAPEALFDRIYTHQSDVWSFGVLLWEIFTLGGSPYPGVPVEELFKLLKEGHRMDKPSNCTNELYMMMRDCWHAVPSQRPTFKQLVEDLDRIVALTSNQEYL
Method in brief: as §1

[5] = biological target: FGFR2 V564F (Homo sapiens (Human), UniProt P21802, V564F); assay: TR-FRET kinase inhibition assay, FGFR2 V564F; assay type: biochemical; conditions: ATP Km concentration (20 μM)
FGFR2 V564F, sequence (P21802 481-770 V564F): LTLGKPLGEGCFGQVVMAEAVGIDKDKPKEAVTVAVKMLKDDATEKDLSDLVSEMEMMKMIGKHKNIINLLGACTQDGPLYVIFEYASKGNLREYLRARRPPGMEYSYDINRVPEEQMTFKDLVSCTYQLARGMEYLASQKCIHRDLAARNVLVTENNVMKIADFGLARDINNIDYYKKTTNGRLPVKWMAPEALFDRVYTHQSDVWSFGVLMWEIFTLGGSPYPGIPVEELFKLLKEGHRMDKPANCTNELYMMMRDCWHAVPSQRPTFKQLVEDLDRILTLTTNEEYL
Method in brief: as §1

[6] = biological target: FGFR3 (Homo sapiens (Human), UniProt P22607); assay: TR-FRET kinase inhibition assay, FGFR3; assay type: biochemical; conditions: ATP Km concentration (30 μM)
FGFR3, sequence (P22607 472-761): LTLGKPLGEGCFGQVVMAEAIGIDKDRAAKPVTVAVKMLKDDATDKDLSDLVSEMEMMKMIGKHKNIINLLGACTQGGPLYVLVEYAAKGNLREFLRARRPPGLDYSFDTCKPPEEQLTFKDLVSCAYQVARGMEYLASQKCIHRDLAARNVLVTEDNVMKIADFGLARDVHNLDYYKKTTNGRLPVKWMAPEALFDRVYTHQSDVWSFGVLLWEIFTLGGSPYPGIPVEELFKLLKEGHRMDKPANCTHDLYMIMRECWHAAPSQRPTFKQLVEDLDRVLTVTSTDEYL
Experimental: To measure the IC50 values of the compounds against FGFR1, FGFR2, FGFR3, FGFR4, and FGFR2 V564F at ATP Km concentrations by TR-FRET method.
TR-FRET (time-resolved fluorescence resonance energy transfer) method was used to detect the inhibitory activity of the compounds on FGFR1, FGFR2, FGFR3, FGFR4, and FGFR2 V564F kinase region fragments. The highest detection concentration of the compounds in 5 kinase experiments was 1000 nM, which was diluted in 3 folds, with a total of 11 concentrations (1000 nM to 0.017 nM). A kinase buffer (50 mM HEPES pH 7.5, 1 mM EGTA, 10 mM MgCl2, 2 mM DTT, and 0.01% Tween-20) was used to prepare 4× enzyme solution, 4× compound solutions diluted in gradient, and a 2×ATP/Peptide substrate solution. To a 384-well plate, 2.5 μL of enzyme solution and 2.5 μL of diluted […] compound solution were added, and 5 μL of 2×ATP/Peptide substrate solution was then added. After reacting at room temperature for 60 minutes for FGFR1, FGFR2, FGFR3, and FGFR2 V564F kinases, and 120 minutes for FGFR4 kinase, 10 μL of a 2× termination and detection mixed liquid prepared with 1×LANCE detection buffer with an EDTA concentration of 20 mM and a Europium-anti-phosphotyrosine (PT66) concentration of 2 nM was added to each well of the plate. After reacting at room temperature for 60 minutes for FGFR1, FGFR2, FGFR3, and FGFR4, and 30 minutes for FGFR2 V564F, the fluorescence signal value in each well of the plate was measured by a microplate reader.
1) Inhibition rate (%): Calculation was performed on the raw data (665 nm/620 nm reading ratio) according to the following formula to obtain the inhibition rate. Inhibition rate %=[(mean value in positive control well−value in sample well)/(mean value in positive control well−mean value in negative control well)]×100, wherein the positive control well was a reaction well without a compound […], and the negative control well was a reaction wells without an enzyme.
2) Curve fitting: Log(inhibitor) vs. response—Variable slope (four parameters) in GraphPad Prism 6 was used for fitting equation analysis of the compound concentration and the corresponding inhibition rate, and the curve was fitted to obtain the IC50 values of the compounds.

[7] = Pharmacokinetic experiment in SD rats after oral administration; assay type: in vivo; conditions: 5 mg/kg, plasma; for AUC(0-t) / AUC(0-inf) / half-life / MRT / Cmax: male, Sprague-Dawley (SD), rat, po; for AUC(0-t): read-out: Area under the curve AUC0-t; for AUC(0-inf): read-out: Area under the curve AUC0-∞; for half-life: read-out: Half-life t1/2 (converted); for MRT: read-out: Mean residence time MRT; for Cmax: read-out: Plasma concentration Cmax; for Time to peak tmax: p.o.

FGFR2, sequence (P21802 481-770): as the sequence (P21802 481-770 V564F) above, with F84V counted along it

Row | IC50 [1] [nM] | IC50 [2] [nM] | IC50 [3] [nM] | IC50 [4] [nM] | IC50 [5] [nM] | IC50 [6] [nM] | AUC(0-t) [7] [ng·h/mL] | AUC(0-inf) [7] [ng·h/mL] | half-life [7] [h] | MRT [7] [h] | Cmax [7] [ng/mL] | Time to peak tmax [7] [h] | SMILES
1 | 2 | 2.2 | 1.5 | 7.2 | 2.8 | 2.7 | – | – | – | – | – | – | C=CC(=O)N1CC[C@H](n2nc(C#Cc3ccc4ccnn4c3)c3c(N)ncc(C(C)=O)c32)C1 [Example 71, (S)-1-(3-(7-acetyl-4-amino-3-(pyrazolo[1,5-a]pyridine-6-ethynylene)-1H-pyrazolo[4,3-c]pyridin-1-yl)pyrrolidine-1-methyl)prop-2-en-1-one]
2 | 1.4 | 1.5 | 1.97 | 7.3 | 2.1 | 1.6 | 1150 | 1150 | 0.6 | 2.26 | 298 | 0.5 | C=CC(=O)N1CC[C@H](n2nc(C#Cc3ccc4ccnn4c3)c3c(N)ncc(C(=O)CC)c32)C1 [Example 72, (S)-1-(3-(4-amino-7-propionyl-3-(pyrazolo[1,5-a]pyridine-6-ethynylene)-1H-pyrazolo[4,3-c]pyridin-1-yl)pyrrolidine-1-methyl)prop-2-en-1-one]
3 | 0.3 | 0.5 | 0.21 | 1.4 | 0.3 | 0.5 | 2800 | 2910 | 1.4 | 3.05 | 677 | 1 | C=CC(=O)N1CC[C@H](n2nc(C#Cc3ccc4cn(C)nc4c3)c3c(N)ncc(C(C)=O)c32)C1 [Example 82, (S)-1-(3-(7-acetyl-4-amino-3-((2-methyl-2H-indazol-6-yl)alkynyl)-1H-pyrazolo[4,3-c]pyridin-1-yl)pyrrolidine-1-methyl)prop-2-en-1-one]
